Tests used:
[1] = molecular target: T1, P2X7 (Homo sapiens, UniProt Q99572); assay: Pore permeation assay (YO PRO dye uptake, BzATP-induced); type: cell-based; parameters: expressed in transfected cells; host or cells: HEK293; conditions: HEK293 transfected with human P2X7 receptor; YO PRO dye 1 uM, BzATP 10 uM; read-out: hP2X7 IC50
T1 sequence (Q99572 1-595): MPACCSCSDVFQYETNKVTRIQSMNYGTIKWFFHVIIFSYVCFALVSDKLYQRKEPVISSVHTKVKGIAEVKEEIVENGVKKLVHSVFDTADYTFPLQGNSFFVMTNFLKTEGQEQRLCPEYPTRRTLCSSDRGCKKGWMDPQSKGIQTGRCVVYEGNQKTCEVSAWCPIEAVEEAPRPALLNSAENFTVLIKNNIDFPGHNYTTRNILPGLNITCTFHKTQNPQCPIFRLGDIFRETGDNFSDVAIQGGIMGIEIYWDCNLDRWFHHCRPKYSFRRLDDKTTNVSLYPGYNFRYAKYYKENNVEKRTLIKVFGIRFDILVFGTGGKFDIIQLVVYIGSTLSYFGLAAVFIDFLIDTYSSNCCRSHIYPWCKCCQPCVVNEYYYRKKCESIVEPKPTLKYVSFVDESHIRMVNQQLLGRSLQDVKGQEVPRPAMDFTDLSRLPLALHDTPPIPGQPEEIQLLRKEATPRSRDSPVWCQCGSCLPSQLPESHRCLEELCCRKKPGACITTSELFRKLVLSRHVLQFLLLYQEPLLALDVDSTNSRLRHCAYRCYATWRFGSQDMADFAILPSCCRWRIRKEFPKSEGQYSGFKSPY
Description: Agonist-induced pore formation was determined by measuring cellular uptake of YO PRO fluorescence dye in HEK293 transfected with human P2X7 receptor. A HEK293 cell over expressing human P2X7 was harvested using HQTase reagent to detach the cells from T75 cm flask. The harvested cells are centrifuged @ 1200 rpm for 5 min at room temperature. The viability of cells was determined by Trypan blue dye and the cells are plated @ 10,000 cell/well in 50 ul volume in a 384 W BD Poly lysine coated plate and incubated overnight at 37 C. After overnight incubation, the culture medium was replaced with 35 ul/well assay buffer (5 mM KCl, 0.1 mM CaCl2, 5 mM Glucose, 10 mM HEPES buffer pH7.4 containing 125 mM NaCl. The serial dilution of compounds was performed using Bravo liquid handling instrument and the compounds were added using Bravo to the cell assay plate starting at 2.5 uM with three dilutions for 10 points. The positive control inhibitor compound was added to column 23. The plate was shaken slowly on a plate shaker for 10 seconds. The cells were incubated with the compound for 20 minutes at room temperature. After the incubation period, YO PRO dye (1 uM) along with BzATP (10 uM) were added to cells at 10 ul/well. The plate was centrifuged at 1000 rpm for 5 seconds and incubated at room temperature for 30 minutes. The uptake of YO PRO dye into the cells was measured using Envision Fluorescence plate reader instrument (Perkin Elmer).

[2] = molecular target: T1, P2X7; assay: IL-1β release assay in THP-1 cells (sandwich ELISA); type: cell-based; parameters: release of mature IL-1β in the culture medium of THP-1 cells; endogenous in cells; host or cells: THP-1 cells (PMA-differentiated, LPS-primed); conditions: PMA, LPS primed, stimulated with 0.8 mM BzATP, mature IL-1β release, read-out: hTHP-1/IL-ib IC50
Description: The activation of P2X7 by ATP leads to a fast transient activation of cells resulting in influx of Ca^2+ followed by conversion of pro-IL-1β to active IL-1β. The functional activity of P2X7 compounds was measured by the release of mature IL-1β in the culture medium of THP-1 cells, detected by sandwich ELISA. Cells were maintained in complete growth medium (RPMI 1640+10% HI-FCS+2 mM L-glutamine+1×PS). […] THP-1 cells were harvested from the flask in 50 ml by centrifugation for 3 min at 100 g. The cells were resuspended to 2×10^5 cells/ml in medium supplemented with 0.5 μM PMA and incubated. The cells were washed and resuspended to 1.5×10^5 cells/ml in medium complemented with 10 ng/ml LPS, and the cells were primed for 4 h at 37° C., 5% CO2. After addition of 20 μL of prediluted test compounds, blank, standard and control reagents, cells were incubated for a further 20 min at 37° C. and stimulated with 0.8 mM BzATP for 30 minutes. The cells were centrifuged, supernatant was collected and the presence of mature IL-1β was detected using Dual human IL-1b kit following manufacturer's instruction. The tetrahydrobenzodiazepine analogs effectively modulated the activity of P2X7 in the cells as measured by the levels of pro-inflammatory cytokine IL-1β, which is released by the activation of P2X7 receptor.

IC50 [1] [nM] | IC50 [2] [nM] | Structure (SMILES)
10 to 100 | 10 to 100 | CN(C)c1ccc2c(C(=O)NCC3CCC(F)(F)CC3)c(Cl)ccc2n1 [Compound 44]
< 10 | 10 to 100 | C[C@@H]1CCC[C@](O)(CNC(=O)c2c(Cl)ccc3nc(N4CCC(N(C)C)C4)ccc23)C1 (stereo partly drawn) [Compound 6, 6-Chloro-2-(3-dimethylamino-pyrrolidin-1-yl)-quinoline-5-carboxylic acid ((1R,3R)-1-hydroxy-3-methyl-cyclohexylmethyl)-amide]
10 to 100 | 101 to 500 | O=C(NCC1CCC(F)(F)CC1)c1c(Cl)ccc2nc(C3=CCCC3)ccc12 [Compound 42, 6-Chloro-2-cyclopent-1-enyl-quinoline-5-carboxylic acid (4,4-difluoro-cyclohexyl methyl)-amide]
10 to 100 | 10 to 100 | O=C(NCC1CCC(F)(F)CC1)c1c(Cl)ccc2nc(N3CC[C@H](CO)C3)ccc12 [Compound 29, 6-Chloro-2-((S)-3-hydroxymethyl-pyrrolidin-1-yl)-quinoline-5-carboxylic acid (4,4-difluoro-cyclohexylmethyl)-amide]
10 to 100 | 10 to 100 | O=C(NCC1(O)CCCC(F)(F)C1)c1c(Cl)ccc2nc(N3CCC(F)(F)C3)ccc12 (stereo not shown) [Compound 46, 6-Chloro-2-(3,3-difluoropyrrolidin-1-yl)-quinoline-5-carboxylic acid (3,3-difluoro-1-hydroxycyclohexylmethyl)-amide]
10 to 100 | 10 to 100 | CN(C)C1CCN(c2ccc3c(C(=O)NCC4(O)CCC(F)(F)CC4)c(Cl)ccc3n2)C1 (stereo not shown) [Compound 28, 6-Chloro-2-(3-dimethylamino-pyrrolidin-1-yl)-quinoline-5-carboxylic acid (4,4-difluoro-1-hydroxy-cyclohexylmethyl)-amide]
10 to 100 | 10 to 100 | O=C(NCC1CCC(F)(F)CC1)c1c(Cl)ccc2nc(NCCO)ccc12 [Compound 66, 6-Chloro-2-(2-hydroxy-ethylamino)-quinoline-5-carboxylic acid (4,4-difluoro-cyclohexyl methyl)-amide]
10 to 100 | 10 to 100 | O=C(NCC1CCC(F)(F)CC1)c1c(Cl)ccc2nc(N3CC[C@H](F)C3)ccc12 [Compound 41, 6-Chloro-2-((S)-3-fluoropyrrolidin-1-yl)-quinoline-5-carboxylic acid (4,4-difluoro-cyclohexylmethyl)-amide]
10 to 100 | 10 to 100 | O=C(NC[C@@]1(O)CCCC(F)(F)C1)c1c(Cl)ccc2nc(N3CCC(F)(F)C3)ccc12 [Compound 24, 6-Chloro-2-(3,3-difluoropyrrolidin-1-yl)-quinoline-5-carboxylic acid ((R)-3,3-difluoro-1-hydroxycyclohexylmethyl)-amide]
10 to 100 | 10 to 100 | O=C(NCC1CCC(F)(F)CC1)c1c(Cl)ccc2nc(N3CCC(CO)C3)ccc12 (stereo not shown) [Compound 45]
10 to 100 | 10 to 100 | O=C(NCC1(O)CCC(F)(F)CC1)c1c(Cl)ccc2nc(N3CCC(N4CCCC4)C3)ccc12 (stereo not shown) [Compound 27, 6-Chloro-2-(3-pyrrolidinyl-pyrrolidin-1-yl)-quinoline-5-carboxylic acid (4,4-difluoro-1-hydroxy-cyclohexylmethyl)-amide]
101 to 500 | 101 to 500 | O=C(NCC1(O)CCCC(F)(F)C1)c1c(Cl)ccc2nc(N3CC(F)(F)C3)ccc12 (stereo not shown) [Compound 75, 6-Chloro-2-(3,3-difluoroazetidin-1-yl)-quinoline-5-carboxylic acid (3,3-difluoro-1-hydroxycyclohexylmethyl)-amide]
< 10 | 10 to 100 | O=C(NCC1CCCC(F)(F)C1)c1c(Cl)ccc2nc(N3CC[C@@H](F)C3)ccc12 (stereo partly drawn) [Compound 1, 6-Chloro-2-((R)-3-fluoropyrrolidin-1-yl)-quinoline-5-carboxylic acid (3,3-difluoro-cyclohexylmethyl)-amide]
10 to 100 | 101 to 500 | O=C(NCC1CCC(F)(F)CC1)c1c(Cl)ccc2nc(N3CCC(F)(F)C3)ccc12 [Compound 58]
< 10 | 101 to 500 | O=C(NCC1CCC(F)(F)CC1)c1c(Cl)ccc2nc(N3CC[C@H](CCO)C3)ccc12 [Compound 11, 6-Chloro-2-((R)-3-hydroxyethyl-pyrrolidin-1-yl)-quinoline-5-carboxylic acid (4,4-difluoro-cyclohexylmethyl)-amide]
10 to 100 | 101 to 500 | O=C(NCC1CCCC(F)(F)C1)c1c(Cl)ccc2nc(N3CCC(CCO)C3)ccc12 (stereo not shown) [Compound 63, 6-Chloro-2-(3-hydroxyethyl-pyrrolidin-1-yl)-quinoline-5-carboxylic acid (3,3-difluoro-cyclohexylmethyl)-amide]
10 to 100 | 10 to 100 | NC1CCN(c2ccc3c(C(=O)NCC4(O)CCCC(F)(F)C4)c(Cl)ccc3n2)C1 (stereo not shown) [Compound 32, 2-(3-Aminopyrrolidin-1-yl)-6-chloro-quinoline-5-carboxylic acid (3,3-difluoro-1-hydroxycyclohexylmethyl)-amide]
10 to 100 | 500 to 999 | COCCNc1ccc2c(C(=O)NCC3CCC(F)(F)CC3)c(Cl)ccc2n1 [Compound 68, 6-Chloro-2-(2-methoxy-ethylamino)-quinoline-5-carboxylic acid (4,4-difluoro-cyclohexyl methyl)-amide]
101 to 500 | 10 to 100 | O=C(NCC1CCC(F)(F)CC1)c1c(Cl)ccc2ncccc12 [Compound 78]
10 to 100 | 10 to 100 | CN(C)[C@@H]1CCN(c2ccc3c(C(=O)NCC4(O)CCC(F)(F)CC4)c(Cl)ccc3n2)C1 [Compound 23, 6-Chloro-2-((R)-3-dimethylamino-pyrrolidin-1-yl)-quinoline-5-carboxylic acid (4,4-difluoro-1-hydroxy-cyclohexylmethyl)-amide]
10 to 100 | 10 to 100 | O=C(NCC1(O)CCCC(F)(F)C1)c1c(Cl)ccc2nc(N3CC[C@H](F)C3)ccc12 (stereo partly drawn) [Compound 36, 6-Chloro-2-((S)-3-fluoropyrrolidin-1-yl)-quinoline-5-carboxylic acid (3,3-difluoro-1-hydroxycyclohexylmethyl)-amide]
10 to 100 | 101 to 500 | CC(C)(C)OC(=O)N1CC=C(c2ccc3c(C(=O)NCC4CCC(F)(F)CC4)c(Cl)ccc3n2)CC1 [Compound 51, 4-{6-Chloro-5-[(4,4-difluoro-cyclohexylmethyl)-carbamoyl]-quinolin-2-yl}-3,6-dihydro-2H-pyridine-1-carboxylic acid tert-butyl ester]
10 to 100 | 101 to 500 | O=C(NCC1CCC(F)(F)CC1)c1c(Cl)ccc2nc(CCCO)ccc12 [Compound 64, 6-Chloro-2-(3-hydroxy-propyl)-quinoline-5-carboxylic acid (4,4-Difluorocyclohexyl methyl)-amide]
